From paper PMC11085134, “Chemical Constituents and Anticancer Activities of Marine-Derived Fungus Trichoderma lixii” (Molecules, 2024)
Entries after “also recorded” stand apart in the source; their conditions may differ. Like-named read-outs stand apart in the source and are kept apart here.

Experiments:
[1] = tested on: PANC-1 cancer cells; assay: Anti-austerity assay (cytotoxicity under glucose starvation vs normal glucose); details: for Anti-Austerity Activity Selectivity: Glucose − versus Glucose +; for Selective index (SI): IC50 high glucose versus no glucose media
Experimental: Human myeloma KMS-11, colorectal HT-29, and pancreatic PANC-1 cancer cells were obtained from the Japanese Collection of Research Bioresources (JCRB) Cell Bank (JCRB1179, Osaka, Japan), the American Type Culture Collection (ATCC, HTB-38, Manassas, VA, USA), and the Riken BioResource Research Center (BRC, RCB2095, Ibaraki, Japan), respectively. KMS-11, HT-29, and PANC-1 were cultured in Roswell Park Memorial Institute (RPMI)-1640 medium (Nacalai Tesque, Inc.), McCoy’s 5A medium (Gibco Thermo Fisher Scientific Inc., Waltham, MA, USA), and Dulbecco’s Modified Eagle Medium (DMEM) high glucose (Nacalai Tesque, Inc.), respectively. The culture media contained 10% fetal bovine serum (FBS, Equitech-Bio Inc., Kerrville, TX, USA) and 50 μg/mL kanamycin (Fujifilm Wako Pure Chemical Corporation, Osaka, Japan). To induce cell adaptation to nutrient starvation, PANC-1 was cultured in DMEM no glucose (Nacalai Tesque, Inc.) containing 10% dialyzed FBS (Equitech-Bio Inc.) and 50 μg/mL kanamycin. Human umbilical vein endothelial cells (HUVEC) were obtained from Kurabo Industries Ltd., Osaka, Japan (KE-4109) and cultured in HuMedia-EB2 (Kurabo Industries Ltd.) supplemented with HuMedia-EG (2% FBS, 10 ng/mL human epidermal growth factor, 1.34 μg/mL hydrocortisone, antibacterial agents, 50 μg/mL gentamicin and 50 ng/mL amphotericin B, 5 ng/mL human fibroblast growth factor-B, and 10 μg/mL heparin). Cells were incubated in a humidified incubator at 37 °C in an atmosphere of 5% CO2.
The anti-austerity activity against PANC-1 cell line was investigated by a WST-8 based assay according to the method described above. PANC-1 cells were plated in a 96-well flat bottom plate at a high density of 10,000 cells/100 μL/well in a DMEM high glucose medium overnight. The medium was removed, washed with phosphate-buffered saline (PBS, Nissui Pharmaceutical Co., Ltd., Tokyo, Japan) twice, and then replaced with either DMEM high glucose or DMEM no glucose. After incubation for 12 h, crude extracts (final concentration 100 μg/mL) or serially diluted compounds were added, and the cells were incubated for an additional 12 h. […] Selective index (SI) was based on the difference between the IC50 values obtained from the high glucose and no glucose media. Antimycin A was used as a positive control.

[2] = tested on: KMS-11 human myeloma cell line; assay: Antiproliferative WST-8 assay, KMS-11; assay type: cell-based; details: read-out: Antiproliferative Activity (IC50 ± SE) KMS-11
Excerpt: (§1) The assessment of antiproliferative effects is a fundamental in vitro assay in the early stages of drug discovery for the screening of potential anticancer compounds that merit further investigation and development for their therapeutic potential in the fight against cancer. The antiproliferative activity of all isolated compounds against three cancer cell lines (KMS-11, HT-29, and PANC-1) was examined by WST-8 based assay according to the manufacturer’s instructions.
(§2) The antiproliferative activity against cancer and normal cell lines was investigated by a WST-8 based assay. […] Compounds to be tested were dissolved in DMSO for stock solution (20 μg/mL) and the final concentration of DMSO was 0.5%. Then, 100 μL of corresponding medium containing 10% WST-8 (Nacalai Tesque, Inc.) was added and incubated for up to 4 h. The absorbance of the formazan products was measured at 450 nm using an iMark^TM microplate reader (Bio-Rad Laboratories, Inc. Hercules, CA, USA). […] Cisplatin (Fujifilm Wako Pure Chemical Corporation) was used as a positive control.

[3] = tested on: HT-29 human colorectal cell line; assay: Antiproliferative WST-8 assay, HT-29; assay type: cell-based; details: read-out: Antiproliferative Activity (IC50 ± SE) HT-29
Excerpt: as §1, §2

[4] = tested on: PANC-1 human pancreas cell line; assay: Antiproliferative WST-8 assay, PANC-1; assay type: cell-based; details: read-out: Antiproliferative Activity (IC50 ± SE) PANC-1
Excerpt: as §1, §2

[5] = tested on: HUVEC (human umbilical vein endothelial cells); assay: Antiproliferative WST-8 assay, HUVEC; assay type: cell-based; details: 48 h, normal cell line, read-out: Antiproliferative Activity (IC50 ± SE) HUVEC
Experimental: The antiproliferative activity of all eleven isolated compounds against normal cell line HUVEC was also examined by WST-8 based assay (Table 2). […] Further extensive structural modifications and in-depth structure–activity relationship studies are required to enhance efficacy and reduce the side effects on normal cells.
as §2

[6] = tested on: KMS-11, HT-29, and PANC-1 cancer cell lines; assay: Antiproliferative activity, summary over the three cancer cell lines; assay type: cell-based, human; details: for IC50: Homo sapiens, 48 h, KMS-11, HT-29 and PANC-1, read-out: IC50, antiproliferative, over all tested cancer cell lines
Excerpt: as §1, §2

[7] = tested on: complex II in the mitochondrial electron transport chain; design: method as in PMID 31435860; details: cited from earlier work
[8] = design: method as in PMID 31030449, PMID 36005532; details: cited from earlier work
[9] = design: method as in PMID 31030449, PMID 36005532; details: cited from earlier work; remark: listed apart in the source
[10] = tested on: mouse lymphoma L5178Y cell line; design: method as in earlier work; details: at 28 μM; cited from earlier work
[11] = tested on: human cervical HeLa; design: method as in PMID 29144133; details: at 50 μM; cited from earlier work
[12] = tested on: colon HCT-116; design: method as in PMID 29144133; details: at 50 μM; cited from earlier work
[13] = tested on: breast MCF-7; design: method as in PMID 29144133; details: at 50 μM; cited from earlier work
[14] = tested on: lung A549; design: method as in PMID 29144133; details: at 50 μM; cited from earlier work
[15] = tested on: leukemia K562; design: method as in PMID 29144133; details: at 50 μM; cited from earlier work
[16] = tested on: leukemia HL-60; design: method as in PMID 29144133; details: at 50 μM; cited from earlier work
[17] = design: method as in PMID 25659618; details: oxygen-labile conjugated diene units; cited from earlier work
[18] = tested on: Escherichia coli; design: method as in PMID 26728965, PMID 32676071, PMID 32077325, doi:10.1007/s10600-022-03814-7; details: cited from earlier work
[19] = tested on: complex I in helminth mitochondria; details: cited from earlier work
[20] = Homo sapiens, PANC-1, 12 h, read-out: Anti-Austerity Activity (IC50 ± SE) Glucose +
[21] = Homo sapiens, PANC-1, 12 h, read-out: Anti-Austerity Activity (IC50 ± SE) Glucose −

Structure (SMILES)	Anti-Austerity Activity Selectivity [1]	IC50 [1, 20]	IC50 [1, 21]	Selective index (SI) [1]	IC50 ([2]; Homo sapiens, KMS-11, 48 h)	IC50 ([3]; Homo sapiens, HT-29, 48 h)	IC50 ([4]; Homo sapiens, PANC-1, 48 h)	IC50 ([5]; Homo sapiens, HUVEC)	IC50 [6]	also measured
CCCCCC[C@H]1C(=O)O[C@H](C)[C@H](NC(=O)c2cccc(NC=O)c2O)C(=O)O[C@@H](C)[C@@H]1OC(=O)CC(C)C [Antimycin A, reference compound]	selective	> 300 µM	0.0162 ± 0.00026 µM	≥ 18,480	–	–	–	–	–	–
N.N.[Cl][Pt][Cl] [Cisplatin, reference compound]	–	–	–	–	–	–	–	–	–	IC50 ([2]; 48 h): 4.91 ± 1.06 µM; IC50 ([3]; 48 h): 10.6 ± 0.83 µM; IC50 ([4]; 48 h): 28.6 ± 3.43 µM; IC50 [5]: 13.7 ± 2.57 µM; IC50 ([1]; read-out: Anti-Austerity Activity (IC50 ± SE) Glucose +, 12 h, normal glucose (DMEM high glucose)): > 100 µM; IC50 ([1]; read-out: Anti-Austerity Activity (IC50 ± SE) Glucose −, 12 h, glucose starvation (DMEM no glucose)): > 100 µM; IC50 ([1]; read-out: IC50 against PANC-1 under both glucose starvation and normal glucose conditions, 12 h, both Glucose − and Glucose +): > 100 µM
COc1ccc2cc(NC(=O)C3=NO[C@H]4[C@H](O)C=C[C@@H](O)[C@@]4(O)C3)c(=O)oc2c1OC [Compound 1, trichodermamide A]	–	> 100 µM	> 100 µM	–	> 100 µM	> 100 µM	> 100 µM	> 100 µM	–	IC50 ([1]; Homo sapiens, PANC-1, 12 h, read-out: IC50 against PANC-1 under both glucose starvation and normal glucose conditions): > 100 µM; Antiproliferative activity in words ([6]; all tested cell lines): completely inactive
COc1ccc2cc(NC(=O)C3=NO[C@H]4[C@H](O)C=C[C@@H](Cl)[C@@]4(O)C3)c(=O)oc2c1OC [Compound 2, trichodermamide B]	did not display selectivity; also recorded: not selective	11.6 ± 1.59 µM	17.8 ± 4.75 µM	–	1.38 ± 0.12 µM	0.73 ± 0.12 µM	3.58 ± 0.32 µM	1.69 ± 0.26 µM	0.7 to 3.6 µM	–
COc1ccc2cc(NC(=O)[C@@]34C[C@@]5(O)C(ON3)[C@H](O)C=C[C@H]5S4)c(=O)oc2c1OC (stereo partly shown) [Compound 3, aspergillazine A]	selective	> 400 µM	75.6 ± 4.08 µM	≥ 5	38 ± 7.72 µM	22.2 ± 3.09 µM	50.3 ± 4.21 µM	26.2 ± 5.51 µM	–	–
COc1ccc(C2SSC34CC5(O)C(Cl)C=CC(O)C5ON3C(=O)C2NC4=O)c(O)c1OC (stereo not shown) [Compound 4, DC1149B]	selective	213 ± 4.07 µM	22.4 ± 2.5 µM	10	7.6 ± 0.4 µM	39.2 ± 4.6 µM	24.7 ± 4.44 µM	6.94 ± 0.86 µM	–	Inhibition of complex II in the mitochondrial electron transport chain [7]: inhibition
CC(C)[C@@H](C)/C=C/[C@@H](C)[C@H]1CC[C@@H]2[C@]1(C)CC[C@H]1[C@]23C=C[C@]2(C[C@@H](O)CC[C@]12C)OO3 [Compound 5, ergosterol peroxide]	–	> 100 µM	> 100 µM	–	> 100 µM	> 100 µM	> 100 µM	> 100 µM	> 100 µM	–
COc1cc(O)c2c(=O)c(C)c(C)oc2c1 [Compound 8, 5-hydroxy-2,3-dimethyl-7-methoxychromone]	–	> 100 µM	> 100 µM	–	> 100 µM	> 100 µM	> 100 µM	> 100 µM	> 100 µM	Antimicrobial activity [8]: weak or no; DPPH scavenging activity [9]: weak or no
CCC(C)C=CC=C(C)CC(C)C=CC=CC1OC(=O)C(O)C2OC12C (stereo not shown) [Compound 9, nafuredin A]	selective	76.7 ± 3.22 µM	49 ± 1.31 µM	2	6.9 ± 1.84 µM	11.9 ± 0.55 µM	15.3 ± 0.44 µM	2.45 ± 0.16 µM	6.9 to 15.3 µM	Cytotoxicity [10]: no cytotoxicity; Cytotoxicity [11]: no cytotoxicity; Cytotoxicity [12]: no cytotoxicity; Cytotoxicity [13]: no cytotoxicity; Cytotoxicity [14]: no cytotoxicity; Cytotoxicity [15]: no cytotoxicity; Cytotoxicity [16]: no cytotoxicity; Stability in air [17]: unstable in air; Antibacterial activity against Escherichia coli [18]: exhibited antibacterial activity; Inhibition of complex I in helminth mitochondria [19]: selective inhibition
